How the values were obtained:
Test in all cases: biochemical
Design in all cases: KINOMEscan active-site competition binding panel (468 kinase assays), per cent of control at 1000 nM
Settings in all cases: KINOMEscan per cent of control (binding competition); read-out: Percent Control
ROS1 = ROS1 (Homo sapiens, UniProt P08922)
Description: (§1) Figure S7 / Percent Control

NEK3 = NEK3 (Homo sapiens, UniProt P51956)
Description: as §1

KIT(A829P) = KIT(A829P) (Homo sapiens, UniProt P10721, A829P)
Description: as §1

MARK2 = MARK2 (Homo sapiens, UniProt Q7KZI7)
Sequence of MARK2 (Q7KZI7 whole entry): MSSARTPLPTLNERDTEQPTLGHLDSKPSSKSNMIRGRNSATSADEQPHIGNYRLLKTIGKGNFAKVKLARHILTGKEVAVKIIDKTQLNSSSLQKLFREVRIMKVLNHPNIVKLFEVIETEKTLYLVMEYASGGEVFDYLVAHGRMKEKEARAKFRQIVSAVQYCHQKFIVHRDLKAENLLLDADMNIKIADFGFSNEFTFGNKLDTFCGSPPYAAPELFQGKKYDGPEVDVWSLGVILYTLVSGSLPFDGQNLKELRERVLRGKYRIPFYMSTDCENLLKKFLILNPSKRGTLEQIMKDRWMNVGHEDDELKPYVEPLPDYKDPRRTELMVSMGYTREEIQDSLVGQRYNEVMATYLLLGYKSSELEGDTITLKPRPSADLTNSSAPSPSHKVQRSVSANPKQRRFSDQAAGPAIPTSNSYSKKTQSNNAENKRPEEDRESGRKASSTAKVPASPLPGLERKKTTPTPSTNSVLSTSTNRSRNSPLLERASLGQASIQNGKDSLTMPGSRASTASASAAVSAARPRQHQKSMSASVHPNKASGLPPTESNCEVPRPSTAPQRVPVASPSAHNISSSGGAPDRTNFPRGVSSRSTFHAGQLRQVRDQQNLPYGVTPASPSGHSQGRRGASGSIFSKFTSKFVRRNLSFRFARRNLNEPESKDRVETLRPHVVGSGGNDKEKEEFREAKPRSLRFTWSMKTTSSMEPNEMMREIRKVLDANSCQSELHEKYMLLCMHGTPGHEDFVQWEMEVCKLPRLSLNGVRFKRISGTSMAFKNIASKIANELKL
Description: as §1

KIT(L576P) = KIT(L576P) (Homo sapiens, UniProt P10721, L576P)
Description: as §1

ERK2 = biological target: T1, ERK2 (Homo sapiens, UniProt P28482)
T1 construct: gene MAPK1
Description: as §1

CDK4 = CDK4 (Homo sapiens, UniProt P11802)
Description: as §1

GRK3 = GRK3 (Homo sapiens, UniProt P35626)
Description: as §1

PRKX = PRKX (Homo sapiens, UniProt P51817)
Description: as §1

TGFBR2 = TGFBR2 (Homo sapiens, UniProt P37173)
Description: as §1

PIK3CA(C420R) = PIK3CA(C420R) (Homo sapiens, UniProt P42336, C420R)
Description: as §1

MET(M1250T) = MET(M1250T) (Homo sapiens, UniProt P08581, M1250T)
Sequence of MET(M1250T) (P08581 whole entry M1250T): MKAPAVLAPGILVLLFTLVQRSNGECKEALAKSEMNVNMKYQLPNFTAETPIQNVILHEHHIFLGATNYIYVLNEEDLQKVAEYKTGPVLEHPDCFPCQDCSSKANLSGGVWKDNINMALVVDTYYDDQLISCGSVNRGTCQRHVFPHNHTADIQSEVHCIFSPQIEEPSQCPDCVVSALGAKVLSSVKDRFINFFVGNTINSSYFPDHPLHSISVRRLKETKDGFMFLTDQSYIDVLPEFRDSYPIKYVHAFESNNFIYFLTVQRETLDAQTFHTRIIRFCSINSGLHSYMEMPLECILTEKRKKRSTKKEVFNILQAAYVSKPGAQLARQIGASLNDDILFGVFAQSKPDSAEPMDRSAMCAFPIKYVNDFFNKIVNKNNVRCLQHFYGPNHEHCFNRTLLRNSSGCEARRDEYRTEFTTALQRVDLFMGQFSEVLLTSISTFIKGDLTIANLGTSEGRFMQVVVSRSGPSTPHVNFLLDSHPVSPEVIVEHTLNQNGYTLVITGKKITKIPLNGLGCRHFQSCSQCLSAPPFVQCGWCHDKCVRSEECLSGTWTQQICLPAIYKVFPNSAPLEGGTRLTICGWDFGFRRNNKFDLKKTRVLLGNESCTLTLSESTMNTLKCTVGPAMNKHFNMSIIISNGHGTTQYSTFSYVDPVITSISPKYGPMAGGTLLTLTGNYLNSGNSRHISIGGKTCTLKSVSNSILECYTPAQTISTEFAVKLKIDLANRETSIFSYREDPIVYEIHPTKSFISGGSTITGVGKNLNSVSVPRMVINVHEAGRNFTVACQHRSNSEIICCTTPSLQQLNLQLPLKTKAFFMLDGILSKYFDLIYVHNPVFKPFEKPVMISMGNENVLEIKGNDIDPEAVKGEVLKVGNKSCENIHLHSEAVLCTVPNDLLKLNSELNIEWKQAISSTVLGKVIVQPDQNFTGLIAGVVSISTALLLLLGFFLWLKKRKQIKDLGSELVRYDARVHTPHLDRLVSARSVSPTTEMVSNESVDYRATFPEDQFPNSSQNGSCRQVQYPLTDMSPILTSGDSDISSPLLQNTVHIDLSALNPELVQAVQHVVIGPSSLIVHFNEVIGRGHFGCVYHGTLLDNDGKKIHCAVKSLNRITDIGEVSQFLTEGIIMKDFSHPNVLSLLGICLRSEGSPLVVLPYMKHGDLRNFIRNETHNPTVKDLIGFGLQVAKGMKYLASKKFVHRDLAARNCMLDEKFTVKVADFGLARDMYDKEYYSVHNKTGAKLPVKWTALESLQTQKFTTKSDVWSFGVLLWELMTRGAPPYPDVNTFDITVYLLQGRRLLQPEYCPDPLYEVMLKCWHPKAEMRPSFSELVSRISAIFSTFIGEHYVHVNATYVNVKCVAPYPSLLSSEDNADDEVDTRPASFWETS
Description: as §1

GSK3A = GSK3A (Homo sapiens, UniProt P49840)
Description: as §1

BRSK2 = BRSK2 (Homo sapiens, UniProt Q8IWQ3)
Description: as §1

YSK1 = biological target: T2, YSK1 (Homo sapiens, UniProt O00506)
T2 construct: gene STK25
T2 sequence (O00506 whole entry): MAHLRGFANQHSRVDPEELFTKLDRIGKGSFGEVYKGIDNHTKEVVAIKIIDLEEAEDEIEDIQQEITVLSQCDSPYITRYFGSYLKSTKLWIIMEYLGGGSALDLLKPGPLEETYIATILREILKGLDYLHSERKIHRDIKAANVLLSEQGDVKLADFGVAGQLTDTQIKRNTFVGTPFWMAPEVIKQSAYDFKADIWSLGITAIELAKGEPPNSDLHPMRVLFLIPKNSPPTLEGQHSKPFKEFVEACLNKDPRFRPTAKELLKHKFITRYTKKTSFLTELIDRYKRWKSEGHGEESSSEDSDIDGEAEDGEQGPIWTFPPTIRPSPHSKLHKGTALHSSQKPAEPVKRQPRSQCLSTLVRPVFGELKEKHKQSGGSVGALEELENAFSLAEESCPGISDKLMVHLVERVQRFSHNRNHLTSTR
Description: as §1

PRKCE = PRKCE (Homo sapiens, UniProt Q02156)
Description: as §1

ERBB2 = ERBB2 (Homo sapiens, UniProt P04626)
Description: as §1

PIKFYVE = PIKFYVE (Homo sapiens, UniProt Q9Y2I7)
Description: as §1

PLK4 = PLK4 (Homo sapiens, UniProt O00444)
Description: as §1

PFTK1 = biological target: T3, PFTK1 (Homo sapiens, UniProt O94921)
T3 construct: gene CDK14
Description: as §1

FLT3(D835V) = FLT3(D835V) (Homo sapiens, UniProt P36888, D835V)
Description: as §1

GAK = GAK (Homo sapiens, UniProt O14976)
Description: as §1

MAPKAPK2 = MAPKAPK2 (Homo sapiens, UniProt P49137)
Description: as §1

FGFR1 = FGFR1 (Homo sapiens, UniProt P11362)
Description: as §1

ADCK3 = biological target: T4, ADCK3 (Homo sapiens, UniProt Q8NI60)
T4 construct: gene COQ8A
Description: as §1

Sequence of ROS1 (P08922 whole entry): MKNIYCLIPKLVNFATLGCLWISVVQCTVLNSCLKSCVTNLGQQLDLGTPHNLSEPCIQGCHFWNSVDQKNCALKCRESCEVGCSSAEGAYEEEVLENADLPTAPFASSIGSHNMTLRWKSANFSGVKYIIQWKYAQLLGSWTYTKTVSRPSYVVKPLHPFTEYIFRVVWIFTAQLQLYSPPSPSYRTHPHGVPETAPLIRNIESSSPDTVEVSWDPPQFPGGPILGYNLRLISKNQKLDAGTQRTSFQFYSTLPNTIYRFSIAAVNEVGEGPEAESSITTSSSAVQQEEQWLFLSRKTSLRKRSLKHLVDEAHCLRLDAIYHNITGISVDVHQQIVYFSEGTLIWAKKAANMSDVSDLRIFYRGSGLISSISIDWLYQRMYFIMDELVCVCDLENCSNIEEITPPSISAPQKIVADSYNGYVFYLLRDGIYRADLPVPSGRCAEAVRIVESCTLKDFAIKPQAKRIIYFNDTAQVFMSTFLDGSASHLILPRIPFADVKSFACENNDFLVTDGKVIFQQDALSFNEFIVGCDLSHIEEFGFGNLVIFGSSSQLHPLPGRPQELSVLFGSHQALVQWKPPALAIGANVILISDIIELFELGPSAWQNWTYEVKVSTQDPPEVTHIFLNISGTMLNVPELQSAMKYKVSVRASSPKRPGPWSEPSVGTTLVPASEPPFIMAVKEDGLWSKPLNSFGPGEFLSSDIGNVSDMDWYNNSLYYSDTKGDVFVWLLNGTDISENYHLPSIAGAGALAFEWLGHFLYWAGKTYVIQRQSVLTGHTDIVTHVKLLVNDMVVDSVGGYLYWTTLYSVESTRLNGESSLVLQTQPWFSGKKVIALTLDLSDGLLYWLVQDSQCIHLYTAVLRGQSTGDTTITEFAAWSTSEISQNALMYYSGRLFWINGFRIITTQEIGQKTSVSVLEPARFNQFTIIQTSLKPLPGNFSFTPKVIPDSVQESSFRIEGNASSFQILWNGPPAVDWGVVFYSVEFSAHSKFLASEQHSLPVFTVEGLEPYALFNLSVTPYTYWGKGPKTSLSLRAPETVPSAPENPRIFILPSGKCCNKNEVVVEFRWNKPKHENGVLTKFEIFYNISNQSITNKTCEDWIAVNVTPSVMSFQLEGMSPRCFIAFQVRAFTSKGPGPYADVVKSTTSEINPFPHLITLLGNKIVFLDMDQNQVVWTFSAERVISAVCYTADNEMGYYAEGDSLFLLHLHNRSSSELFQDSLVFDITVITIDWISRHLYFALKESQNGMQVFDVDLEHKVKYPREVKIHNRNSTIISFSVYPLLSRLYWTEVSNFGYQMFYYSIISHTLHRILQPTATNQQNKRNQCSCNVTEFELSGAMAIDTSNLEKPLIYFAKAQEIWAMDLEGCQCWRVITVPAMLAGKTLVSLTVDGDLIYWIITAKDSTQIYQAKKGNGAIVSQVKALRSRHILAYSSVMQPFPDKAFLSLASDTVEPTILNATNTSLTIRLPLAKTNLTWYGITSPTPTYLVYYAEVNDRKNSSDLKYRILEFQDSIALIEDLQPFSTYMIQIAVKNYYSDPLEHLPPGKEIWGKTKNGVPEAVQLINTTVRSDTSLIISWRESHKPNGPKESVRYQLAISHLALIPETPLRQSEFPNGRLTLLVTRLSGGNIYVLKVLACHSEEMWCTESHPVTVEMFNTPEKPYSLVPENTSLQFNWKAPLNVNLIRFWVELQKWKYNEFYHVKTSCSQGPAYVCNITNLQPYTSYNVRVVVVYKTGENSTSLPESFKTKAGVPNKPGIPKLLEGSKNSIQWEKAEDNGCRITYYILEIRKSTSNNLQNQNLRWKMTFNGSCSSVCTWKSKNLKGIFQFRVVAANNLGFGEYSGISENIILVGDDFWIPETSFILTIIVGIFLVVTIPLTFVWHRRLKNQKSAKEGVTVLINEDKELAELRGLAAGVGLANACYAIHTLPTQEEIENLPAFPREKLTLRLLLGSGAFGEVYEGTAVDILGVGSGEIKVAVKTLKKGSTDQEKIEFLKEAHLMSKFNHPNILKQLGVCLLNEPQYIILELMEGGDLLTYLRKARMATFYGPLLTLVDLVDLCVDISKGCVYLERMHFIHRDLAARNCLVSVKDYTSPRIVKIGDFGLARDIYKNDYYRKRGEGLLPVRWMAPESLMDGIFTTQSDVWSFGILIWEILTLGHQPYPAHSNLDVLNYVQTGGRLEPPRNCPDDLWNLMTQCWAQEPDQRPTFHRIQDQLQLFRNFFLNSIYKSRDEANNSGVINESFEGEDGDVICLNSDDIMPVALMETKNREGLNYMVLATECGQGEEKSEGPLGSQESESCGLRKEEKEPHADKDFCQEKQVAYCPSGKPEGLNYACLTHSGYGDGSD

## Cn1c(=O)[nH]c2ccc(-c3cccc(C(=O)NC4CCn5ccnc5C4)c3)cc21 (stereo not shown) [Z36-MP5]
ROS1
  remaining binding at 1 µM: 51%
NEK3
  remaining binding at 1 µM: 50%
KIT(A829P)
  remaining binding at 1 µM: 78%
MARK2
  remaining binding at 1 µM: 100%
KIT(L576P)
  remaining binding at 1 µM: 74%
ERK2
  remaining binding at 1 µM: 81%
CDK4
  remaining binding at 1 µM: 62%
GRK3
  remaining binding at 1 µM: 53%
PRKX
  remaining binding at 1 µM: 38%
TGFBR2
  remaining binding at 1 µM: 94%
PIK3CA(C420R)
  remaining binding at 1 µM: 91%
MET(M1250T)
  remaining binding at 1 µM: 88%
GSK3A
  remaining binding at 1 µM: 95%
BRSK2
  remaining binding at 1 µM: 100%
YSK1
  remaining binding at 1 µM: 98%
PRKCE
  remaining binding at 1 µM: 100%
ERBB2
  remaining binding at 1 µM: 100%
PIKFYVE
  remaining binding at 1 µM: 96%
PLK4
  remaining binding at 1 µM: 31%
PFTK1
  remaining binding at 1 µM: 98%
FLT3(D835V)
  remaining binding at 1 µM: 55%
GAK
  remaining binding at 1 µM: 71%
MAPKAPK2
  remaining binding at 1 µM: 55%
FGFR1
  remaining binding at 1 µM: 55%
ADCK3
  remaining binding at 1 µM: 39%
